# Data: patent US11266645B2, “Methods for treating lymphoma” (Alexion Pharmaceuticals, Inc., priority 2018, dated 2022)
# Read-outs that look alike come from different tables or passages of the source.
# Key:
# Primary CLL cells = Primary CLL cells with IL-4/CD40L, immunoblotting and annexin V/PI viability; type: cell-based, human; details: for IL-4/CD40L induced Mcl-1 and Bcl-XL expression: 1 μM
# Description: Combination studies were performed with 10 or 100 nM venetoclax or 300 and 1000 nM S63846. Cell viability was assessed by annexin V/PI using flow cytometry and changes in protein expression by immunoblotting.
# [1] = system: patients with relapsed or refractory PTCL; details: cited from earlier work; for ORR / CR / DOR: relapsed/refractory PTCL; for ORR: brentuximab only anaplastic large cell lymphoma
Molecule,Grade 3/4 AEs: Fatigue ([1]; Table 1),Grade 3/4 AEs: Thrombocytopenia ([1]; Table 1),"Toxicities ≥ Grade 3: Anemia ([1]; r/r PTCL, Table 2)","Toxicities ≥ Grade 3: Asthenia/Fatigue ([1]; r/r PTCL, Table 2)","Toxicities ≥ Grade 3: Pyrexia ([1]; r/r PTCL, Table 2)","Toxicities ≥ Grade 3: Thrombocytopenia ([1]; r/r PTCL, Table 2)",ORR [1],CR [1],DOR [1],IL-4/CD40L induced Mcl-1 and Bcl-XL expression (Primary CLL cells),"Toxicities ≥ Grade 3: Neutropenia ([1]; r/r PTCL, Table 2)",further results
"Cc1c(-c2c(-c3ccc(F)o3)sc3ncnc(O[C@H](Cc4ccccc4OCc4ccnn4CC(F)(F)F)C(=O)O)c23)ccc(OCCN2CCN(C)CC2)c1Cl [S63845, reference compound]",–,–,–,–,–,–,–,–,–,–,–,"synergy with BCR kinase inhibitors including cerdulatinib, CLL cell death (Primary CLL cells; CLL cells): synergized"
O=C(/C=C/c1cccc(S(=O)(=O)Nc2ccccc2)c1)NO [Belinostat],Fatigue: 5%,Thrombocytopenia: 7%,11%,5%,2%,7%,ORR: 26%,(11% CR),DOR: 8.4 months,–,–,"Grade 3/4 AEs: Anemia ([1]; Table 1): Anemia: 11%; Toxicities ≥ Grade 3: Infection ([1]; r/r PTCL, Table 2): 8.5%^; ORR ([1]; listed as belinostat): approximately 25%"
"NC(=O)c1cnc(N[C@@H]2CCCC[C@@H]2N)nc1Nc1cccc(-n2nccn2)c1 [PRT062607, reference compound]",–,–,–,–,–,–,–,–,–,significantly reduced,–,–
Brentuximab,–,Thrombocytopenia: 10%,2%,4%,2%,10%,ORR: 86%,(57% CR),DOR: 12.6 months,–,21%,"Grade 3/4 AEs: Neutropenia ([1]; Table 1): Neutropenia: 21%; Grade 3/4 AEs: Peripheral sensory neuropathy ([1]; Table 1): Peripheral sensory neuropathy: 10%; Toxicities ≥ Grade 3: Diarrhea/Colitis ([1]; r/r PTCL, Table 2): 3%"
"CC[C@H](Nc1ncnc2[nH]cnc12)c1nc2cccc(F)c2c(=O)n1-c1ccccc1 [idelalisib, reference compound]",–,–,–,–,–,–,–,–,–,significantly reduced,–,–
C/C=C1\NC(=O)[C@H]2CSSCC/C=C/[C@H](CC(=O)N[C@H](C(C)C)C(=O)N2)OC(=O)[C@H](C(C)C)NC1=O [Romidepsin],Fatigue: 13%,Thrombocytopenia: 21%,11-28%,8-19%,6-17%,24-36%,–,–,–,–,20-47%,"Grade 3/4 AEs: Nausea ([1]; Table 1): Nausea: 4%; Toxicities ≥ Grade 3: Infection ([1]; r/r PTCL, Table 2): 19%; Toxicities ≥ Grade 3: Leukopenia ([1]; r/r PTCL, Table 2): 6-45%; Toxicities ≥ Grade 3: Sepsis ([1]; r/r PTCL, Table 2): 5%"
"c1cn2cc(-c3ccc4cn[nH]c4c3)nc(Nc3ccc(N4CCOCC4)cc3)c2n1 [entospletinib, reference compound]",–,–,–,–,–,–,–,–,–,significantly reduced,–,–
C#CCC(Cc1cnc2nc(N)nc(N)c2n1)c1ccc(C(=O)N[C@@H](CCC(=O)O)C(=O)O)cc1 (some centres unmarked) [Pralatrexate],Fatigue: 7%,Thrombocytopenia: 33%,17%,8%,2%,33%,ORR: 27%,(6% CR),DOR: 9.4 months,–,20%,"Grade 3/4 AEs: Anemia ([1]; Table 1): Anemia: 17%; Grade 3/4 AEs: Mucositis ([1]; Table 1): Mucositis: 21%; Grade 3/4 AEs: Neutropenia ([1]; Table 1): Neutropenia: 20%; Toxicities ≥ Grade 3: Leukopenia ([1]; r/r PTCL, Table 2): 7%; Toxicities ≥ Grade 3: Mucositis ([1]; r/r PTCL, Table 2): 23%; Toxicities ≥ Grade 3: Sepsis ([1]; r/r PTCL, Table 2): 5%; ORR ([1]; listed as pralatrexate): approximately 25%"
